Experiments:
[1] = test system: D341 Med; assay: CellTiter-Glo cell viability, brain tumor cell line D341 Med; type: cell-based; details: Homo sapiens, 72 h, cerebellar medulloblastoma cell, 3 days of culture, read-out: inhibitory effect on D341 Med (IC50)
Method: (§1) Cell viability was detected using the Promega CellTiter-Glo kit, cell viability was determined by directly measuring intracellular ATP content. In the experiment, the IC50 value of the compounds prepared in the Examples of the present invention on various brain tumor cell lines was detected.
(§2) Each tumor cell was cultured in relevant medium. After cell passage, the gradient diluted compounds prepared in the Examples of the present invention was added. After 3 days of culture, the relevant IC50 (50% inhibiting concentration) was measured. The name, source and culture conditions of each tumor cell line were as follows:
Cell line D341 Med (ATCC, No. HTB-187) was cultured in 20% fetal bovine serum-containing EMEM medium (+P/S).

[2] = test system: 786-O; assay: CellTiter-Glo cell viability, tumor cell line 786-O; type: cell-based; details: Homo sapiens, 786-0, 72 h; clear cell renal cell adenocarcinoma cell; 3 days of culture; read-out: inhibitory effect on 786-O (IC50)
Method: (§3) Cell viability was detected using the Promega CellTiter-Glo kit, cell viability was determined by directly measuring intracellular ATP content. In the experiment, the IC50 value of the compounds prepared in the Examples of the present invention on various tumor cell lines was detected.
as §2
Cell line 786-0 (ATCC, No. CRL-1932) was cultured in 10% fetal bovine serum-containing RPMI164B medium (+P/S).

[3] = test system: NB-1; assay: CellTiter-Glo cell viability, brain tumor cell line NB-1; type: cell-based; details: Homo sapiens, NB1, 72 h; brain neuroblastoma cell; 3 days of culture; read-out: inhibitory effect on NB-1 (IC50)
Method: as §1
as §2, with “follows: […]” for “follows:”

[4] = test system: G-401; assay: CellTiter-Glo cell viability, tumor cell line G-401; type: cell-based; details: G-401, 72 h; human renal carcinoma Wilms cell; 3 days of culture; read-out: inhibitory effect on G-401 (IC50)
Method: as §3, §2
Cell line G-401 (ATCC, No. CRL-1441) was cultured in 10% fetal bovine serum-containing McCoy's 5a medium (+P/S).

[5] = test system: Con-NCI-H82 cell; assay: CellTiter-Glo cell viability, Con-NCI-H82 cell (empty-vector control); type: cell-based, human; details: Homo sapiens, NCI-H82, NCI-H82 transfected with empty virus vector (control), intracellular ATP, read-out: inhibitory effect on Con-NCI-H82 (IC50)
[6] = test system: SW48; assay: CellTiter-Glo cell viability, tumor cell line SW48; type: cell-based; details: SW48, 72 h; human colon adenocarcinoma cell; 3 days of culture; read-out: inhibitory effect on SW48 (IC50)
Method: as §3, §2
Cell line SW48 (ATCC, No. CCL-231) was cultured in 10% fetal bovine serum-containing Leibovitz's L-15 medium (+P/S).

[7] = test system: SF-126; assay: CellTiter-Glo cell viability, tumor cell line SF-126; type: cell-based; details: SF-126, 72 h, read-out: inhibitory effect on SF-126 (IC50); human glioblastoma multiforme cell; 3 days of culture
Method: as §3, §2
Cell line SF126 (JCRB, No. IFO50286) was cultured in 10% fetal bovine serum-containing EMEM medium (+P/S).
as §1

[8] = test system: CFPAC-1; assay: CellTiter-Glo cell viability, tumor cell line CFPAC-1; type: cell-based; details: CFPAC-1, 72 h; human pancreatic cancer cell; 3 days of culture; read-out: inhibitory effect on CFPAC-1 (IC50)
Method: as §3, §2
Cell line CFPAC-1 (ATCC, No. CRL-1918) was cultured in 10% fetal bovine serum-containing IMDM medium (+P/S).

[9] = test system: GB-1; assay: CellTiter-Glo cell viability, tumor cell line GB-1; type: cell-based; details: GB-1, 72 h; human brain glioblastoma cell; 3 days of culture; read-out: inhibitory effect on GB-1 (IC50)
Method: as §3, §2
Cell line GB-1 (JCRB, No. IFO50489) was cultured in 10% fetal bovine serum-containing DMEM medium (+P/S).
as §1

[10] = test system: NCI-H82; assay: CellTiter-Glo cell viability, tumor cell line NCI-H82; type: cell-based; details: NCI-H82, 72 h; human small cell lung cancer cell; 3 days of culture; read-out: inhibitory effect on NCI-H82 (IC50)
Method: as §3, §2
Cell line NCI-H82 (ATCC, No. HTB-175) was cultured in 10% fetal bovine serum-containing RPMI1640 medium (+P/S).

[11] = test system: ov-NNMT NCI-H82 cell; assay: CellTiter-Glo cell viability, ov-NNMT NCI-H82 cell (NNMT overexpressed); type: cell-based, human; details: Homo sapiens, NCI-H82, NCI-H82 overexpressing NNMT protein, intracellular ATP, read-out: inhibitory effect on OV-NNMT NCI-H82 (IC50)
[12] = test system: sh-DNMT1 NCI-H82 cell; assay: CellTiter-Glo cell viability, sh-DNMT1 NCI-H82 cell (DNMT1 knocked down); type: cell-based, human; details: Homo sapiens, NCI-H82, NCI-H82 with DNMT1 knocked down by shRNA, intracellular ATP, read-out: inhibitory effect on sh-DNMT1 NCI-H82 (IC50)
[13] = test system: Kelly; assay: CellTiter-Glo cell viability, brain tumor cell line Kelly; type: cell-based; details: Homo sapiens, 72 h, brain neuroblastoma cell, 3 days of culture, read-out: inhibitory effect on Kelly (IC50)
Method: as §1, §2
Cell line Kelly (ECACC, No. 92110411) was cultured in 10% fetal bovine serum and 2 mM glutamine-containing RPMI1640 medium.

[14] = test system: MDA-MB-453; assay: CellTiter-Glo cell viability, tumor cell line MDA-MB-453; type: cell-based; details: Homo sapiens, MDA-MB-453, 72 h; breast cancer cell; 3 days of culture; read-out: inhibitory effect on MDA-MB-453 (IC50)
Method: as §3
as §2, with “follows: […]” for “follows:”

Compound `COc1ccc2c(c1OC)C(C(Cl)(Cl)Cl)N1CCc3cc4c(cc3C1=C2CCCc1ccccc1)OCO4` (centres unmarked) [AB35417] has an IC50 [1] of 880 nM, an IC50 [2] of 10200 nM and an IC50 [3] of 2390 nM. It also gave an IC50 [4] of 1110 nM, an IC50 [5] of 570 nM and an IC50 [6] of 980 nM. For the same compound, the IC50 [7] was 12300 nM, the IC50 [8] was 9880 nM and the IC50 [9] was 14100 nM. For the same compound, the IC50 [10] was 570 nM, the IC50 [11] was 1780 nM and the IC50 [12] was 3120 nM. For the same compound, the IC50 [13] was 1240 nM and the IC50 [14] was 1320 nM.
For `COc1ccc2c(c1OCCCCl)C(C1CCCC1)N1CCc3cc4c(cc3C1=C2)OCO4` (centres unmarked) [AB35434], the IC50 [1] was 3150 nM, the IC50 [2] was 22200 nM and the IC50 [3] was 2980 nM. The IC50 [4] was 2640 nM, the IC50 [5] was 1680 nM and the IC50 [6] was 3050 nM. For the same compound, the IC50 [7] was greater than 30000 nM, the IC50 [8] was greater than 30000 nM and the IC50 [9] was 25700 nM. For the same compound, the IC50 [10] was 1680 nM, the IC50 [11] was 5120 nM and the IC50 [12] was 4980 nM. For the same compound, the IC50 [13] was 2460 nM and the IC50 [14] was 2320 nM.
Work on `[2H]C1c2c(ccc(OC)c2OCCC)C=C2c3cc4c(cc3CCN21)OCO4` (centres unmarked) [AB36437] yielded an IC50 [1] of 2120 nM, an IC50 [2] of 20200 nM and an IC50 [3] of 2580 nM. The IC50 [4] was 980 nM, the IC50 [5] was 650 nM and the IC50 [6] was 2550 nM. The IC50 [7] was 16800 nM, the IC50 [8] was 14400 nM and the IC50 [9] was 19900 nM. It also gave an IC50 [10] of 650 nM, an IC50 [11] of 2730 nM and an IC50 [12] of 3120 nM. For the same compound, the IC50 [13] was 1890 nM and the IC50 [14] was 1340 nM.
Compound `CCCOc1c(OC)ccc2c1CN1CCc3cc4c(cc3C1=C2)OCO4` [AB35536] has an IC50 [1] of 1060 nM, an IC50 [2] of 15500 nM and an IC50 [3] of 3110 nM. It also gave an IC50 [4] of 1390 nM, an IC50 [5] of 520 nM and an IC50 [6] of 1270 nM. The IC50 [7] was 23400 nM, the IC50 [8] was 9960 nM and the IC50 [9] was 16500 nM. It also gave an IC50 [10] of 520 nM, an IC50 [11] of 2240 nM and an IC50 [12] of 2560 nM. For the same compound, the IC50 [13] was 2560 nM and the IC50 [14] was 940 nM.
With `CCCOc1c(OC)ccc2c1C(C1CCCC1)N1CCc3cc4c(cc3C1=C2)OCO4` (centres unmarked) [AB35512] the IC50 [1] was 2010 nM, the IC50 [2] was 15400 nM and the IC50 [3] was 1560 nM. It also gave an IC50 [4] of 1330 nM, an IC50 [5] of 620 nM and an IC50 [6] of 2020 nM. For the same compound, the IC50 [7] was 18100 nM, the IC50 [8] was 17300 nM and the IC50 [9] was 23500 nM. It also gave an IC50 [10] of 620 nM, an IC50 [11] of 2420 nM and an IC50 [12] of 2320 nM. For the same compound, the IC50 [13] was 4230 nM and the IC50 [14] was 1560 nM.
`COc1ccc2c(c1OCCCF)CN1CCc3cc4c(cc3C1=C2)OCO4` [AB35590] gave an IC50 [1] of 2780 nM, an IC50 [2] of 13900 nM and an IC50 [3] of 1990 nM. For the same compound, the IC50 [4] was 2660 nM, the IC50 [5] was 1520 nM and the IC50 [6] was 2150 nM. It also gave an IC50 [7] of 17700 nM, an IC50 [8] of 15300 nM and an IC50 [9] of 22500 nM. The IC50 [10] was 1520 nM, the IC50 [11] was 4680 nM and the IC50 [12] was 4040 nM. For the same compound, the IC50 [13] was 3160 nM and the IC50 [14] was 1980 nM.
For `COc1ccc2c(c1OCCCCl)CN1CCc3cc4c(cc3C1=C2)OCO4` [AB35543], the IC50 [1] was 1680 nM, the IC50 [2] was 9880 nM and the IC50 [3] was 2360 nM. It also gave an IC50 [4] of 1060 nM, an IC50 [5] of 550 nM and an IC50 [6] of 1560 nM. The IC50 [7] was 15900 nM, the IC50 [8] was 10200 nM and the IC50 [9] was 13400 nM. It also gave an IC50 [10] of 550 nM, an IC50 [11] of 2680 nM and an IC50 [12] of 3120 nM. The IC50 [13] was 1540 nM and the IC50 [14] was 880 nM.
